Experiments:
KCNQ5 = target: T1, KCNQ5 (Homo sapiens, UniProt Q9NR82); assay: Whole-cell voltage clamp of KCNQ5 stably expressed in HEK-293 cells; assay type: cell-based; details: 10 μM, holding −90 mV, step to −30 mV
T1 construct: expressed in transfected cells; host or cells: HEK-293
Method: (§1) KCNQ4 and KCNQ5 was sub-cloned into the mammalian expression vector pNS1n (NeuroSearch), a custom-designed derivative of pcDNA3Neo (InVitrogen). HEK-293 cells (American Type Culture Collection) were grown in DMEM (Life Technologies) supplemented with 10% FCS (Life Technologies) at 37° C. in 5% CO2.
(§2) One day prior to transfection, 10^6 cells were plated in a cell culture T25 flask (Nunc). Cells were transfected with 2.5 μg of the plasmid pNS1n_KCNQ4 or with 2.5 μg of the plasmid pNS1n_KCNQ5 using Lipofectamine (Life Technologies) according to the manufacturer's instructions. Cells transfected with pNS1n_KCNQ4 or pNS1n_KCNQ5 were selected in media supplemented with 0.5 mg/ml geneticin (G418; Life Technologies).
(§3) Single clones were picked and propagated in selection media for five passages after which they were considered stable. Following the cells were cultured in regular medium without selection agent.
Expression of functional KCNQ4 channels or KCNQ5 channels was verified by patch-clamp measurements. […]
(§4) Whole-cell currents were recorded using a HEKA EPC-9 amplifier and borosilicate glass micropipettes with tip resistances of 1.5-3 MΩ. […]
The currents were measured from a cell patch clamped in the whole-cell voltage clamp configuration. […]
The currents recorded in the absence (control) and in the presence of 10 μM of the reference M current blocker XE-991 is shown in the panel to the left.

KCNQ4 [1] = target: T2, KCNQ4 (Homo sapiens, UniProt P56696); assay: Membrane potential in current clamp mode, KCNQ4 expressing cell; assay type: cell-based; details: FIG. 3; for membrane potential after addition of compound: 10 μM in bath solution, whole cell, initial resting potential around −60 mV, sequential additions to same cell
T2 construct: expressed in transfected cells; host or cells: HEK-293
Method: as §1, §2, §3
Expression of functional KCNQ4 channels or KCNQ5 channels was verified by patch-clamp measurements.
Transfected cells were cultured on glass cover slips (Ø=3 mm), which were transferred to a small recording chamber. The chamber was perfused with extracellular solutions at a rate of 1 ml/min giving rise to full exchange of the chamber volume (15 μl) each second.
Whole-cell currents were recorded using a HEKA EPC-9 amplifier and borosilicate glass micropipettes with tip resistances of 1.5-3 MΩ. Series resistances were below 5 MΩ, mostly stayed constant during the experiment and were compensated by 70%. The currents were not leak-subtracted.
All experiments were performed at room temperature (21-25° C.). Igor software (WaveMetrics, Lake Oswego, Oreg.) was used for the analysis.
The bath solution consisted of 144 mM NaCl, 4 mM KCl, 2 mM CaCl2, 1 mM MgCl2 and 10 mM HEPES (pH adjusted to 7.4). The pipette solution consisted of 144 mM KCl, 5.4 mM CaCl2, 1.8 mM MgCl2, 4 mM NaATP, 0.4 mM GTP, 10 mM EGTA and 10 mM HEPES (pH adjusted to 7.2).
The membrane potential was measured in current clamp mode using the whole cell configuration of the patch clamp technique. A resting membrane potential of around −60 mV was initially recorded from this cell and the addition of 10 μM Compound 1 to the bath solution induced a hyper-polarisation of the membrane potential to −83 mV.
After washout of Compound 1, the membrane potential returned to −69 mV, and subsequent addition of 10 μM Retigabine, a KCNQ activator, induced a faster but smaller hyperpolarisation to a membrane potential of −76 mV.
The compounds were present in the bath solution during the times indicated by the bars.

KCNQ channels = details: background statement; cited from earlier work
BK channels = BK channels (Homo sapiens, UniProt Q12791); details: background statement; cited from earlier work
KCNQ4 [2] = target: T2, KCNQ4; assay: Whole-cell voltage clamp of KCNQ4 stably expressed in HEK-293 cells; assay type: cell-based
Method: as §1, §2
Single clones were picked and propagated in selection media for five passages after which they were considered stable. Following the cells were cultured in regular medium without selection agent. […]
as §4
The currents were measured in voltage mode using the whole-cell configuration of the patch clamp technique. […]
The experimental conditions was as described above, but in this experiment the depolarising potential ranged from −120 mV to +40 mV before a step back to −120 mV where brief inward tail currents were recorded. […]

Sequence of BK channels (Q12791 whole entry): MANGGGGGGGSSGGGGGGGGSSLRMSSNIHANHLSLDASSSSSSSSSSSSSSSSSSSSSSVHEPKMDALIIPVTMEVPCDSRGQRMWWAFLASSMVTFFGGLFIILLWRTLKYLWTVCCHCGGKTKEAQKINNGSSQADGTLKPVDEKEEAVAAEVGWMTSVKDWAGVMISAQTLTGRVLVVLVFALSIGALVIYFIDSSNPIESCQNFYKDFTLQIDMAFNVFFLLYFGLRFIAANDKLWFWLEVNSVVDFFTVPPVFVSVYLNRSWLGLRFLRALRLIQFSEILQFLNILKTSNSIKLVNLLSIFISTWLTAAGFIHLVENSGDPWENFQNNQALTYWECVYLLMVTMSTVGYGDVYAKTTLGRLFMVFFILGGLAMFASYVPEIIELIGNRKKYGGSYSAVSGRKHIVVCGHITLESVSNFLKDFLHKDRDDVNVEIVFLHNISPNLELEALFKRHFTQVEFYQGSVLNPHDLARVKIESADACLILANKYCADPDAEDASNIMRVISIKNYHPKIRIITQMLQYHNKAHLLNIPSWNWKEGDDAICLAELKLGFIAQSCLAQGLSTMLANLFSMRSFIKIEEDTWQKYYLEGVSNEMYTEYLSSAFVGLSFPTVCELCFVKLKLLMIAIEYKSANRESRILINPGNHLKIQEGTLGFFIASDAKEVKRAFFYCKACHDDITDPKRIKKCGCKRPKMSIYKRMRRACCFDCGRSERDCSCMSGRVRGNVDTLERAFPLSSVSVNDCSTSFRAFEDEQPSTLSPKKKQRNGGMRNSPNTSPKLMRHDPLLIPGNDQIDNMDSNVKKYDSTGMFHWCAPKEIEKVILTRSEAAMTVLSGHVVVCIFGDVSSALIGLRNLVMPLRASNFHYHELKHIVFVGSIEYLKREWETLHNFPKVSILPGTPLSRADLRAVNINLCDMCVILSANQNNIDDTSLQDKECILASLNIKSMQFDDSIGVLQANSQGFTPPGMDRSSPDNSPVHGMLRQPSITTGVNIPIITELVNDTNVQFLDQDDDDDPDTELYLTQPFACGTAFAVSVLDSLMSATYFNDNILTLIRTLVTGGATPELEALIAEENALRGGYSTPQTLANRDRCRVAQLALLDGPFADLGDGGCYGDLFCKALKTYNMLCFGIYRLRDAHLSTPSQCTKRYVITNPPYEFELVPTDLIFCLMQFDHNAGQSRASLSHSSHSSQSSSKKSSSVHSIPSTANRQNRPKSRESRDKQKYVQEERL

| reversibility of inhibition of KCNQ5 currents (KCNQ5; FIG. 4) | membrane potential after addition of compound (KCNQ4 [1]) [mV] | effect on KCNQ5 currents (KCNQ5; after washout of XE-991, FIG. 4) | membrane potential after washout of compound (KCNQ4 [1]; after washout of 10 μM compound) [mV] | activation of KCNQ4 currents (KCNQ4 [2]; 0.1, 0.3, 1, 3 and 10 μM, holding −90 mV, step to −40 mV, HEK-293 cells, FIG. 1) | SMILES | return of membrane potential upon washout (KCNQ4 [1]; after 10 μM compound) | effect on KCNQ channels (KCNQ channels) | effect on BK channels (BK channels) | changes in IV relation and activation curve (KCNQ4 [2]; 3 μM, depolarising potential −120 mV to +40 mV, FIG. 2) |
| --- | --- | --- | --- | --- | --- | --- | --- | --- | --- |
| not fully reversible | −12 |  |  |  | O=C1c2ccccc2C(Cc2ccncc2)(Cc2ccncc2)c2ccccc21 [XE-991] | returned very slowly towards the control level | potent KCNQ inhibiting compounds | no effect |  |
|  |  |  |  |  | O=C1N(c2ccccc2)c2ccccc2C1(Cc1ccncc1)Cc1ccncc1 [Linopiridine] |  | potent KCNQ inhibiting compounds | no effect |  |
|  | −83 | activation | −69 | dose-dependent activation | COc1ccc(Cl)cc1C1(F)C(=O)Nc2cc(C(F)(F)F)ccc21 (racemic) [Compound 1, (±)-3-(5-chloro-2-methoxyphenyl)-1,3-dihydro-3-fluoro-6-(trifluoromethyl)-2H-indol-2-one] |  |  |  | changes in IV relation and activation curve |
